Measurements taken from US10350210B2, “EGFR and ALK dual inhibitor” (PRECEDO PHARMACEUTICALS CO., LTD, priority 2015, dated 2019).

How the values were obtained:
PC-9 = assay: Growth of cancer cells (Cell Titer-Glo viability), PC-9; assay type: cell-based; conditions: Homo sapiens; PC-9 (EGFR delE746_A750 mutant), 72 hrs
Method in brief: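 Cells are counted as viable by CellTiter-Glo chemiluminescence. Murine BaF3 lines depend on a stably transfected TEL-fused kinase after IL-3 withdrawal, and the NSCLC lines express mutant EGFR.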

CHO = assay: Cell growth (Cell Titer-Glo viability), CHO; assay type: cell-based, Chinese hamster; conditions: Cricetulus griseus; CHO Chinese hamster ovary cell, 72 hrs; read-out: GI50
CHL = assay: Cell growth (Cell Titer-Glo viability), CHL; assay type: cell-based, Chinese hamster; conditions: Cricetulus griseus; CHL Chinese hamster lung cell, 72 hrs; read-out: GI50
A549 = assay: Growth of cancer cells (Cell Titer-Glo viability), A549; assay type: cell-based; conditions: Homo sapiens; A549 (wild-type EGFR), 72 hrs
BaF3-NPM-ALK = assay: Cell growth (Cell Titer-Glo viability), BaF3-NPM-ALK; assay type: cell-based; conditions: Mus musculus; BaF3-NPM-ALK (stably expressing ALK kinase), 72 hrs
NCI-H3122 = assay: Effect on cell cycle (PI staining, flow cytometer), NCI-H3122; assay type: cell-based, human; conditions: NCI-H3122 (ALK gene), 24 hours
Text: In order to study which growth phase the cell was halted after administration of the drugs, five cell lines including non-small cell lung cancer cell line A549 (expressing wild-type EGFR gene), non-small cell lung cancer cell line H1975 (expressing EGFR L858R/T790M double mutant gene), non-small cell Lung cancer cell line PC-9 (expressing EGFR delE746_A750 mutant gene), non-small cell lung cancer cell line H3255 (expressing EGFR L858R mutant gene) and non-small cell lung cancer cell NCI-H3122 (expressing ALK gene) were tested for effect of Compound 1 on cell cycle distribution. Two cell lines including non-small cell lung cancer cell NCI-H3122 (expressing ALK gene) and non-small cell lung cancer cell H1975 (expressing EGFR L858R/T790M double mutant gene) were tested for effect of Compound 10 on cell cycle distribution. […]

H1975 = assay: Effect on cell apoptosis (Western Blot, PARP and Caspase 3 cleavage), H1975; assay type: cell-based, human; conditions: H1975 (EGFR L858R/T790M), 24 hours
Text: In order to confirm whether the death of cells is through apoptosis or necrosis after administration of drugs, non-small cell lung cancer cell A549 (expressing wild-type EGFR gene), non-small cell lung cancer cell line H1975 (expressing EGFR L858R/T790M double mutant gene), non-small cell lung cancer cell line H3255 (expressing EGFR L858R mutant gene), non-small cell lung cancer cell line H3122 (expressing ALK gene) cell line, and non-small cell lung cancer cell line PC-9 (expressing EGFR delE746_A750 mutant gene) were tested for effect of Compound 1 on cleavage of poly ADP-ribose polymerase PARP which is a DNA repair enzyme and Caspase 3, which were closely related to cell apoptosis. […] Western Blot was used to detect the effect of various concentrations of drugs at various time points on cleavage of poly ADP-ribose polymerase PARP which is a DNA repair enzyme and Caspase 3.

Row | Compound | GI50 (PC-9) | GI50 (CHO) | GI50 (CHL) | GI50 (A549) | GI50 (BaF3-NPM-ALK) | effect on cell cycle distribution (NCI-H3122) | concentration at which cleavage of PARP and Caspase 3 could be observed (H1975)
1 | C=CC(=O)Nc1cc(Nc2ncc(Cl)c(Nc3ccccc3S(=O)(=O)C(C)C)n2)c(OC)cc1N1CCCN(C)CC1 [Compound 10, N-(5-(5-chloro-4-(2-(isopropylsulfonyl)phenylamino)pyrimidin-2-ylamino)-4-methoxy-2-(4-methyl-1,4-homopiperazin-1-yl)phenyl)acrylamide] | 15 nM | 990 nM | 3500 nM | 510 nM | 1 nM | halt the cells in G0-G1 phase | 0.3 µM
2 | C=CC(=O)Nc1cc(Nc2ncc(Cl)c(Nc3ccccc3S(=O)(=O)C(C)C)n2)c(OC)cc1N1CCN(CC)CC1 [Compound 1, N-(5-(5-chloro-4-(2-(isopropylsulfonyl)phenylamino)pyrimidin-2-ylamino)-2-(4-ethylpiperazin-1-yl)-4-methoxyphenyl)acrylamide] | 0.7 nM | 200 nM | 1800 nM | 410 nM | < 0.3 nM | halt the cells in G0-G1 phase | 0.3 µM
